In paper PMC5762309 (Oncotarget, 2017):
Where two headings read alike, the source gives them in different places.

Tests used:
[1] = molecular target: T1, EGFR(L747-E749del, A750P) (Homo sapiens, UniProt P00533, A750P/DEL747-749); test: KINOMEScan; type: binding; parameters: dose or concentration left out as unconfirmed
T1 construct: purchased DiscoverX KINOMEscan

[2] = molecular target: T2, CDK2 (Homo sapiens, UniProt P24941); test: KINOMEScan; type: binding; parameters: dose or concentration left out as unconfirmed
T2 construct: purchased DiscoverX KINOMEscan

[3] = tested on: EGFR(L747-T751del,Sins); test: KINOMEScan; type: binding; parameters: dose or concentration left out as unconfirmed
[4] = molecular target: T3, EGFR (Homo sapiens, UniProt P00533); test: KINOMEScan; type: binding; parameters: dose or concentration left out as unconfirmed
T3 construct: purchased DiscoverX KINOMEscan

[5] = molecular target: T4, ARK5 (Homo sapiens, UniProt O60285); test: KINOMEScan; type: binding; parameters: dose or concentration left out as unconfirmed
T4 construct: purchased DiscoverX KINOMEscan

[6] = molecular target: T5, WNK1 (Homo sapiens, UniProt Q9H4A3); test: KINOMEScan; type: binding; parameters: dose or concentration left out as unconfirmed
T5 construct: purchased DiscoverX KINOMEscan

[7] = molecular target: KIT V559D (Homo sapiens, UniProt P10721, V559D); test: Kd determination by MST; type: binding; parameters: Kit V559D encoding residues 545-976 with His tag; His tag; made in house; host or cells: SF9 insect cells (baculovirus); conditions: purified protein
[8] = tested on: FLT3(ITD,F691L); test: KINOMEScan; type: binding; parameters: dose or concentration left out as unconfirmed
[9] = molecular target: T6, TYK2(JH2domain-pseudokinase) (Homo sapiens, UniProt P29597); test: KINOMEScan; type: binding; parameters: dose or concentration left out as unconfirmed
T6 construct: TYK2(JH2domain-pseudokinase); purchased DiscoverX KINOMEscan

[10] = molecular target: T7, SYK (Homo sapiens, UniProt P43405); test: KINOMEScan; type: binding; parameters: dose or concentration left out as unconfirmed
T7 construct: purchased DiscoverX KINOMEscan

[11] = molecular target: T8, ULK1 (Homo sapiens, UniProt O75385); test: KINOMEScan; type: binding; parameters: dose or concentration left out as unconfirmed
T8 construct: purchased DiscoverX KINOMEscan

[12] = molecular target: T9, CDC2L5 (Homo sapiens, UniProt Q14004); test: KINOMEScan; type: binding; conditions: Concentrations 1 µM
T9 construct: purchased DiscoverX KINOMEscan
Source text: (§1) Then we used the DiscoverX’s KINOMEScan platform to further examine CHMFL-KIT-031’s kinome-wide selectivity profile. […] Besides the strong binding to V559D, it also bound strongly to KIT wt, L576P and A829P.

[13] = molecular target: T10, PKMYT1 (Homo sapiens, UniProt Q99640); test: KINOMEScan; type: binding; parameters: dose or concentration left out as unconfirmed
T10 construct: purchased DiscoverX KINOMEscan

[14] = molecular target: T11, ACVR2B (Homo sapiens, UniProt Q13705); test: KINOMEScan; type: binding; parameters: dose or concentration left out as unconfirmed
T11 construct: purchased DiscoverX KINOMEscan

[15] = molecular target: KIT wt (Homo sapiens, UniProt P10721); test: Kd determination by MST; type: binding; parameters: wt KIT residues 544-935 with a His tag; His tag; made in house; host or cells: SF9 insect cells (baculovirus); conditions: purified protein
[16] = molecular target: KIT V559D/V654A (Homo sapiens, UniProt P10721, V559D/V654A); test: KIT auto-phosphorylation in transformed BaF3 cells; conditions: 2h
Sequence of KIT V559D/V654A (P10721 546-976 V559D/V654A): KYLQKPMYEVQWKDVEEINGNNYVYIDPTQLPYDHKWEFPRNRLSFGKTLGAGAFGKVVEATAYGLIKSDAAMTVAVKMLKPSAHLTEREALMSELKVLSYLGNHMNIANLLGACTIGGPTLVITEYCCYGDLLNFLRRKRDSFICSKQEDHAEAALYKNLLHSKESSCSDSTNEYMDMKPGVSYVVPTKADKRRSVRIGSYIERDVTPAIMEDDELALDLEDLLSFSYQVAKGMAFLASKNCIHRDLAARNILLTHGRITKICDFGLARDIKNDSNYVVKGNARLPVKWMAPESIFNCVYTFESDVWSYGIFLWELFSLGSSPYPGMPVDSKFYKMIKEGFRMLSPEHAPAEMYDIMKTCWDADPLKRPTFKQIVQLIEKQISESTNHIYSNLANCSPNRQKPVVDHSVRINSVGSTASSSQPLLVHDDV

[17] = molecular target: KIT T670I/V559D (Homo sapiens, UniProt P10721, T670I/V559D); test: KIT auto-phosphorylation in transformed BaF3 cells
Sequence of KIT T670I/V559D (P10721 26-976 V559D/T670I): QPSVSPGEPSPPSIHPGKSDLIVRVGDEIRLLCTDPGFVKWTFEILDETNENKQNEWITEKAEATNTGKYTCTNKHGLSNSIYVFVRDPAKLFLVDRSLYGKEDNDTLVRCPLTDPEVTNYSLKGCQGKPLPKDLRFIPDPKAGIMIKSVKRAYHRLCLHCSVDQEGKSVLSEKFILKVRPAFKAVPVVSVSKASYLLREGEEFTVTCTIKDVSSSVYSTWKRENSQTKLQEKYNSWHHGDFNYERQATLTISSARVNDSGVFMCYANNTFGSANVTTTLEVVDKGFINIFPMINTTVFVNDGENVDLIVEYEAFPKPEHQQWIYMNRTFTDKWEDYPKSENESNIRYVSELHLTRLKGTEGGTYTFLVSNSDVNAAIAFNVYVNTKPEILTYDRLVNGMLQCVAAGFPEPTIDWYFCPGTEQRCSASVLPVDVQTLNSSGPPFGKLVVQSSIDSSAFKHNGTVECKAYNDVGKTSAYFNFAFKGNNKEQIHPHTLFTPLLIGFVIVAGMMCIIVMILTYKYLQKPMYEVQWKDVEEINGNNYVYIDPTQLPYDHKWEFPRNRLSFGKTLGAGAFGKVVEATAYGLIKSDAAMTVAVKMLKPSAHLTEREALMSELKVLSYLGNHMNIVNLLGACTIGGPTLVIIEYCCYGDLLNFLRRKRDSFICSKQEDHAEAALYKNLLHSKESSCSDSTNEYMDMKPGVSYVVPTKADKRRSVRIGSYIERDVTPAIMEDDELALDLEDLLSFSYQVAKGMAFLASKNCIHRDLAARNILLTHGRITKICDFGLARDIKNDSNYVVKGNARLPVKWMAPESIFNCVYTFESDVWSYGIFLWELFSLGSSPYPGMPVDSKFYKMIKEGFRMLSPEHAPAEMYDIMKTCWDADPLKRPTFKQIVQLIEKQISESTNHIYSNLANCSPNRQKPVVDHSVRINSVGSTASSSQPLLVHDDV

[18] = molecular target: T12, JNK1 (Homo sapiens, UniProt P45983); test: KINOMEScan; type: binding; parameters: dose or concentration left out as unconfirmed
T12 construct: purchased DiscoverX KINOMEscan

[19] = tested on: AKT, S6, ERK, p70S6K and STAT3 phosphorylation; test: Signaling pathway study in BaF3-TEL-KIT-V559D cells; type: cell-based; conditions: KIT-V559D transformed stable BaF3 cells, Western blot
[20] = tested on: FLT3(ITD,D835V); test: KINOMEScan; type: binding; parameters: dose or concentration left out as unconfirmed
[21] = tested on: 468 kinases/mutants; test: KINOMEScan kinome-wide selectivity S score; type: binding; conditions: 1 μM
Source text: as §1

[22] = molecular target: T13, CDK3 (Homo sapiens, UniProt Q00526); test: KINOMEScan; type: binding; parameters: dose or concentration left out as unconfirmed
T13 construct: purchased DiscoverX KINOMEscan

[23] = molecular target: T14, EGFR(E746-A750del) (Homo sapiens, UniProt P00533, DEL746-750); test: KINOMEScan; type: binding; conditions: Concentrations 1 mM
T14 construct: purchased DiscoverX KINOMEscan

[24] = molecular target: T15, MET(M1250T) (Homo sapiens, UniProt P08581, M1250T); test: KINOMEScan; type: binding; parameters: dose or concentration left out as unconfirmed
T15 construct: purchased DiscoverX KINOMEscan
T15 sequence (P08581 25-1390 M1250T): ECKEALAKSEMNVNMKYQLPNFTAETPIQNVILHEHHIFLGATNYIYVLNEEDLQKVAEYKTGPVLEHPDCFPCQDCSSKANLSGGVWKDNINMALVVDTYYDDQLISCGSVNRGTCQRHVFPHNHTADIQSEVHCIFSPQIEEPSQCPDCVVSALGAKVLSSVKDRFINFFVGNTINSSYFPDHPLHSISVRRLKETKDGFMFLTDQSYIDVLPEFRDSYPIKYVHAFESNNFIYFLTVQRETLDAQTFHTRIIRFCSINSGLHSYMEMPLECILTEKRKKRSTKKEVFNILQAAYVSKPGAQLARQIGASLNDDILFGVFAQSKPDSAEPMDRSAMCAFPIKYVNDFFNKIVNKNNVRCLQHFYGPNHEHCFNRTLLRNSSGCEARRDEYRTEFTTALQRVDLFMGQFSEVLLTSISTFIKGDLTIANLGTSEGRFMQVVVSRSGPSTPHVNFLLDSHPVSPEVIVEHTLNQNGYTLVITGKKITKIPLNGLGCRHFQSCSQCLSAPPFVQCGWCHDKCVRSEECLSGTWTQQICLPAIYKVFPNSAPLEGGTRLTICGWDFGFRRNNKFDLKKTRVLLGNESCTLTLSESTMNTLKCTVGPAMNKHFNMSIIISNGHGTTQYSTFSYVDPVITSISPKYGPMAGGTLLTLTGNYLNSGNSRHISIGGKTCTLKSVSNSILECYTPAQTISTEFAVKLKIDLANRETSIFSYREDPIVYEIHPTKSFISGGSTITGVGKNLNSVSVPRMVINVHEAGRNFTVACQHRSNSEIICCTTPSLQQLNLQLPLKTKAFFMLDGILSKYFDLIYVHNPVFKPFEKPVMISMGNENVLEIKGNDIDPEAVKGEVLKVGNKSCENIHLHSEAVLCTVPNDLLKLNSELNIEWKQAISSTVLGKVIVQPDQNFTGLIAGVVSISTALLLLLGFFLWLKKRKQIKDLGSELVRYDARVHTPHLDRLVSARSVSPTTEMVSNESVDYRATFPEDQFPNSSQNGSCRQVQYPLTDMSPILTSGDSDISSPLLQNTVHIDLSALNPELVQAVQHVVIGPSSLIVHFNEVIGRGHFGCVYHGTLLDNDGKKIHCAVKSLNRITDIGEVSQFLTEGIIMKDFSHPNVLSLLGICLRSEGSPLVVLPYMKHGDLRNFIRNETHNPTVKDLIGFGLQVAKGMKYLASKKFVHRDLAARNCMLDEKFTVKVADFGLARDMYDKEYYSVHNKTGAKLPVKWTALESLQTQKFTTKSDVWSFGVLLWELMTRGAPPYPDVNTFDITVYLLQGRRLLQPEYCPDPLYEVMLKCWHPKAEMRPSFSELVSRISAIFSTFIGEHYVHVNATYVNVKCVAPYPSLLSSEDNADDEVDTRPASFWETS

[25] = molecular target: KIT L576p (Homo sapiens, UniProt P10721, L576P); test: KIT auto-phosphorylation in transformed BaF3 cells; conditions: 2h
Sequence of KIT L576p (P10721 26-976 L576P): as the sequence (P10721 26-976 V559D/T670I) above, with D534V, L551P, I645T counted along it

[26] = molecular target: T16, EGFR(T790M) (Homo sapiens, UniProt P00533, T790M); test: KINOMEScan; type: binding
T16 construct: purchased DiscoverX KINOMEscan

[27] = molecular target: T17, BTK (Homo sapiens, UniProt Q06187); test: KINOMEScan; type: binding; parameters: dose or concentration left out as unconfirmed
T17 construct: purchased DiscoverX KINOMEscan

[28] = molecular target: T18, MLK3 (Homo sapiens, UniProt Q16584); test: KINOMEScan; type: binding; parameters: dose or concentration left out as unconfirmed
T18 construct: purchased DiscoverX KINOMEscan

[29] = molecular target: T19, EGFR(L747-S752del, P753S) (Homo sapiens, UniProt P00533, DEL747-752/P753S); test: KINOMEScan; type: binding; parameters: dose or concentration left out as unconfirmed
T19 construct: purchased DiscoverX KINOMEscan
T19 sequence (P00533 with tags, fused parts or gaps DEL747-752/P753S limits assumed): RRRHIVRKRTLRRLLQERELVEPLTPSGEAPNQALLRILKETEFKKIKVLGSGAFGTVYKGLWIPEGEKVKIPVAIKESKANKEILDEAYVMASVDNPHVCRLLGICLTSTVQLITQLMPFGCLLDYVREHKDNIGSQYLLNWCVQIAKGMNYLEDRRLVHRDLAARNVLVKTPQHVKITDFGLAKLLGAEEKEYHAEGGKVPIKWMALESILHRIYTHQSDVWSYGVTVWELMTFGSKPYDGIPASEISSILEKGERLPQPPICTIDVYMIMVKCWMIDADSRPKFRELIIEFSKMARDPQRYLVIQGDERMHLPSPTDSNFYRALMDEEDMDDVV

[30] = molecular target: T20, QSK (Homo sapiens, UniProt Q9Y2K2); test: KINOMEScan; type: binding; parameters: dose or concentration left out as unconfirmed
T20 construct: purchased DiscoverX KINOMEscan
T20 sequence (Q9Y2K2 whole entry): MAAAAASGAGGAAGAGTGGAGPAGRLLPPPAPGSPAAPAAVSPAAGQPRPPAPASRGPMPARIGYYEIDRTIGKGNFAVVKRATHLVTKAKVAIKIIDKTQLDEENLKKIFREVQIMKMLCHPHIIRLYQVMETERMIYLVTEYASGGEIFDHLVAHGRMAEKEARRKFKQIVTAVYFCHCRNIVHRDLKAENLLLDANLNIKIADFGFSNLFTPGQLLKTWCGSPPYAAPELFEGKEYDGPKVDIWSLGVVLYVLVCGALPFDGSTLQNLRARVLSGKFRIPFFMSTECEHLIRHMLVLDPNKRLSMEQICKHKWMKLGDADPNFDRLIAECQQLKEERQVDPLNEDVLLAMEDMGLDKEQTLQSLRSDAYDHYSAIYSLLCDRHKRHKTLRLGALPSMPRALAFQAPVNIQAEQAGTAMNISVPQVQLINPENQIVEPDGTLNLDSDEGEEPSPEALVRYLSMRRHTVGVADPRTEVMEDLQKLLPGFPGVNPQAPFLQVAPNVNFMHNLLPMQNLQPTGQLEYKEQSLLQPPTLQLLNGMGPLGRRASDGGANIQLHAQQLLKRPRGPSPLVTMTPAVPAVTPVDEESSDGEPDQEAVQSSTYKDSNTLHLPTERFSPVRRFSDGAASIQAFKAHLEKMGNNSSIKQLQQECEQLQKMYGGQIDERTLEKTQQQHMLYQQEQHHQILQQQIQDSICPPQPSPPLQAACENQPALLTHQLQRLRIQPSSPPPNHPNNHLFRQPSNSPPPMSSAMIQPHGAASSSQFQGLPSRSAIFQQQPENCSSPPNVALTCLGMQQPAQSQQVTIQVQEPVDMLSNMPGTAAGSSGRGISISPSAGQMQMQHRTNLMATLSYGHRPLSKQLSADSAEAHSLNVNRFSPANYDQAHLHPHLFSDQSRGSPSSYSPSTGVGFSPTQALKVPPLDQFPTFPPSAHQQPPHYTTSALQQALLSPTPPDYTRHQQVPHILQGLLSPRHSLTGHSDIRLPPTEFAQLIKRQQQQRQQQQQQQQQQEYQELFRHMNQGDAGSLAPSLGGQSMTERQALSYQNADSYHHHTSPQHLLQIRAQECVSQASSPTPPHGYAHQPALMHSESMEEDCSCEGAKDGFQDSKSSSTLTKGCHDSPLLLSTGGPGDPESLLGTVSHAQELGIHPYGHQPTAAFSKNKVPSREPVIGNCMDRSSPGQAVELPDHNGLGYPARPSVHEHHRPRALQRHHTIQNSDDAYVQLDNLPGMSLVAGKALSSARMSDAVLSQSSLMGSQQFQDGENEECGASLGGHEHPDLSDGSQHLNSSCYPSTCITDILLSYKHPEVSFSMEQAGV

[31] = EC50 pY703 auto-phosphorylation
[32] = EC50 pY719 auto-phosphorylation
[33] = EC50 pY823 auto-phosphorylation

T1 sequence (P00533 with tags, fused parts or gaps DEL747-749/A750P limits assumed): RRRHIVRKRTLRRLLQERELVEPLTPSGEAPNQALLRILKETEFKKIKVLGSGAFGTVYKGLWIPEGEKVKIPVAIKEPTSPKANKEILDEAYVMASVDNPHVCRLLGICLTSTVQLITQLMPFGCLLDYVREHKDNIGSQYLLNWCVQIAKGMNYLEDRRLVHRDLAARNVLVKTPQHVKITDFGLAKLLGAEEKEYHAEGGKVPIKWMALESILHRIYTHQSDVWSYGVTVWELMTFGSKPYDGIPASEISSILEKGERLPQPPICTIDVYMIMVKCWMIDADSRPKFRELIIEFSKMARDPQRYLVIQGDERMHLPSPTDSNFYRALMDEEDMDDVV

`COc1cc(C(=O)NCC(=O)Nc2ccc3c(/C=C/c4ccccn4)n[nH]c3c2)cc(OC)c1OC` [CHMFL-KIT-031] gave a KINOMEScan profiling value [1] of 100, a KINOMEScan profiling value [2] of 100 and a KINOMEScan profiling value [3] of 100. The KINOMEScan profiling value [4] was 100, the KINOMEScan profiling value [5] was 97 and the KINOMEScan profiling value [6] was 19. For the same molecule, the Kd [7] was 0.266 µM, the KINOMEScan profiling value [8] was 91 and the KINOMEScan profiling value [9] was 100. The KINOMEScan profiling value [10] was 100, the KINOMEScan profiling value [11] was 92 and the KINOMEScan profiling value [12] was 97. For the same molecule, the KINOMEScan profiling value [13] was 91, the KINOMEScan profiling value [14] was 100 and the Kd [15] was 6.64 µM. The EC50 [16, 31] was 5.6 µM, the EC50 [16, 32] was 0.863 µM and the EC50 [16, 33] was 5.4 µM. For the same molecule, the EC50 [17] was over 10 µM, the EC50 ([17]; read-out: EC50 pY719 auto-phosphorylation, KIT T670I/V559D transformed BaF3 cells, 2h) was over 10 µM and the EC50 ([17]; read-out: EC50 pY823 auto-phosphorylation, KIT T670I/V559D transformed BaF3 cells, 2h) was over 10 µM. The KINOMEScan profiling value [18] was 94, the “phosphorylation of downstream mediators AKT, S6, ERK, p70S6K and STAT3” value [19] was “potently inhibited” and the KINOMEScan profiling value [20] was 73. The “S score (1)” value [21] was 0.01, the KINOMEScan profiling value [22] was 100 and the KINOMEScan profiling value [23] was 100. For the same molecule, the KINOMEScan profiling value [24] was 100, the EC50 [25, 31] was over 10 µM and the EC50 [25, 32] was 5.9 µM. For the same molecule, the EC50 [25, 33] was 1.9 µM, the KINOMEScan profiling value [26] was 100 and the KINOMEScan profiling value [27] was 100. The KINOMEScan profiling value [28] was 100, the KINOMEScan profiling value [29] was 100 and the KINOMEScan profiling value [30] was 82.
